Measured values reported in ChEMBL document CHEMBL1156495 (J Biol Chem, 2007).
Calls of active or inactive are those of the source. No cut-off for these calls is given here. Residues, ends and D or L forms follow the SMILES beside them.

Key:
[1] = system: Plasma; assay: Anticoagulant activity in human citreated plasma assessed as prolongation of fibrinogen clotting time; assay type: functional, cell-free
[2] = species: Homo sapiens; assay: Inhibition of amidolytic activity of human alpha-thrombin upto 24 hrs by RP-HPLC
[3] = species: Homo sapiens; assay: Inhibition of amidolytic activity of human alpha-thrombin after 60 mins by RP-HPLC
[4] = target: Coagulation factor X (Homo sapiens) (UniProt P00742); assay: Inhibition of human factor 10a at 1 uM
Chain of Coagulation factor X (Homo sapiens) (P00742 41-179 limits assumed): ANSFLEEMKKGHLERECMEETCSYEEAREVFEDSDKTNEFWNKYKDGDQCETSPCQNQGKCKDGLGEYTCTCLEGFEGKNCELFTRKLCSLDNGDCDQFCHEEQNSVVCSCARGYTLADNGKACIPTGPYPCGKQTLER
Chain of Coagulation factor X (Homo sapiens) (P00742 235-488 limits assumed): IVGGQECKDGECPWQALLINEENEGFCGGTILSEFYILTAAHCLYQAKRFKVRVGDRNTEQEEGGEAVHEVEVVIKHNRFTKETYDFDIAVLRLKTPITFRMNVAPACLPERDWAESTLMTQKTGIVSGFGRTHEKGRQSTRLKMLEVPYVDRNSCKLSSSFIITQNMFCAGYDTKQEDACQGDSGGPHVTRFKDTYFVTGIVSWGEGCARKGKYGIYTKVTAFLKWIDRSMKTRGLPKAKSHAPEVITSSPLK

[5] = target: Coagulation factor XI (Homo sapiens) (UniProt P03951); assay: Inhibition of human factor 11a at 100 uM
Chain of Coagulation factor XI (Homo sapiens) (P03951 19-387 limits assumed): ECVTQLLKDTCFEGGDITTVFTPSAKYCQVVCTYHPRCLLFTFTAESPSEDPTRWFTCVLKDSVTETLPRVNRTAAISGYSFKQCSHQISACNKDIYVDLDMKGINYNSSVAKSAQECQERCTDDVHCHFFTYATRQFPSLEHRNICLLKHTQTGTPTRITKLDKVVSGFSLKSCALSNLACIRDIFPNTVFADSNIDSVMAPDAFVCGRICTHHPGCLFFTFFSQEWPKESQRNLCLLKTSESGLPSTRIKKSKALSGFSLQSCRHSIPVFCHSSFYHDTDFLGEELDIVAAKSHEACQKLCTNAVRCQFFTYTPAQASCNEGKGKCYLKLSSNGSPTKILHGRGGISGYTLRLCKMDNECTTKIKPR
Chain of Coagulation factor XI (Homo sapiens) (P03951 388-625 limits assumed): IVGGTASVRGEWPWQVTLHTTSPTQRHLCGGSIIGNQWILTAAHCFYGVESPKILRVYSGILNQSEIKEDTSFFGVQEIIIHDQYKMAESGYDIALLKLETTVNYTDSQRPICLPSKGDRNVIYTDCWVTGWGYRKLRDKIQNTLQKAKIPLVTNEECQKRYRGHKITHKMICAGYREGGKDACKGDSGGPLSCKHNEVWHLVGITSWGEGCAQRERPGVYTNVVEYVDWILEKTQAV

[6] = species: Homo sapiens; assay: Inhibition of human chymotrypsin at 1 uM
[7] = target: Tissue-type plasminogen activator (Homo sapiens) (UniProt P00750); assay: Inhibition of human tissue plasminogen activator at 1 uM
Chain of Tissue-type plasminogen activator (Homo sapiens) (P00750 36-562 limits assumed): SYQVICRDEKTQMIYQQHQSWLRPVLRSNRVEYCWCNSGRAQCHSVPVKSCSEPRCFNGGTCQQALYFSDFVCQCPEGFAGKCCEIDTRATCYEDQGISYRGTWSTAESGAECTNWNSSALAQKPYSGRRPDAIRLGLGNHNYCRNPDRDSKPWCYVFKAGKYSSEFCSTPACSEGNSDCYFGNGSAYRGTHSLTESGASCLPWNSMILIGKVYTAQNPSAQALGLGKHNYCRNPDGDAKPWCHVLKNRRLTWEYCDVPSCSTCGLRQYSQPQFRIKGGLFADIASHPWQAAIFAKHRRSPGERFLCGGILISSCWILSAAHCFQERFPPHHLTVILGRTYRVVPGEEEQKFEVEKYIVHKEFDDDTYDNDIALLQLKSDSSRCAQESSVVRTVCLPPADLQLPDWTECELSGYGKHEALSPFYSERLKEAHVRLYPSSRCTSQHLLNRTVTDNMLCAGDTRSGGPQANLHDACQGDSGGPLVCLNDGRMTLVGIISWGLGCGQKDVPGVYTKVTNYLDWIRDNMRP

[8] = target: T1, Coagulation factor VII (Homo sapiens) (UniProt P08709); assay: Inhibition of human factor 7a at 1 uM
T1 sequence (whole entry): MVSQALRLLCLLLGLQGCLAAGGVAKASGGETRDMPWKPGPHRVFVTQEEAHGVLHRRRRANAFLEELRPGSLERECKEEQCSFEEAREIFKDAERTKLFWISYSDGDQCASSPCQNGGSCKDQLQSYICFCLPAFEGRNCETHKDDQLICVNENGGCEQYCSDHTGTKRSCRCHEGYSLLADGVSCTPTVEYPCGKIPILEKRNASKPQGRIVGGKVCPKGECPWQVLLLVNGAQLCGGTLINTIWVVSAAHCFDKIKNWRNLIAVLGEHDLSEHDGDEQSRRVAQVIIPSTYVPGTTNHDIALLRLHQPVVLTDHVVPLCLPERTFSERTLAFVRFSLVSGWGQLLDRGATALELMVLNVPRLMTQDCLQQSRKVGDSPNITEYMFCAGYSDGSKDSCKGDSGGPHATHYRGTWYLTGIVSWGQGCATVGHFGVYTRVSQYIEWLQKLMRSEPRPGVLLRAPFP

[9] = target: Vitamin K-dependent protein C (Homo sapiens) (UniProt P04070); assay: Inhibition of human Activated protein C at 1 uM
Chain of Vitamin K-dependent protein C (Homo sapiens) (P04070 43-197 limits assumed): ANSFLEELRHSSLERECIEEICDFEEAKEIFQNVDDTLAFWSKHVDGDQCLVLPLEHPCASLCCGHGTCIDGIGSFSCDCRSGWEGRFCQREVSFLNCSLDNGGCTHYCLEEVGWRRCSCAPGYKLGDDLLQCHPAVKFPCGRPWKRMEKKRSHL
Chain of Vitamin K-dependent protein C (Homo sapiens) (P04070 212-461 limits assumed): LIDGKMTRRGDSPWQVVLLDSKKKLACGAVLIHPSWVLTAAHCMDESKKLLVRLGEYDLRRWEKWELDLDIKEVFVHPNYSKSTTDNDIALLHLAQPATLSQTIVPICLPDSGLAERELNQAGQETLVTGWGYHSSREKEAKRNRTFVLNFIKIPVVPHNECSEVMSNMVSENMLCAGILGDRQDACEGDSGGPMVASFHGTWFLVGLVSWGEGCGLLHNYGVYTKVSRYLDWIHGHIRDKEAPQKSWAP

[10] = target: Plasminogen (Homo sapiens) (UniProt P00747); assay: Inhibition of human plasmin at 1 uM
Chain of Plasminogen (Homo sapiens) (P00747 97-580 limits assumed): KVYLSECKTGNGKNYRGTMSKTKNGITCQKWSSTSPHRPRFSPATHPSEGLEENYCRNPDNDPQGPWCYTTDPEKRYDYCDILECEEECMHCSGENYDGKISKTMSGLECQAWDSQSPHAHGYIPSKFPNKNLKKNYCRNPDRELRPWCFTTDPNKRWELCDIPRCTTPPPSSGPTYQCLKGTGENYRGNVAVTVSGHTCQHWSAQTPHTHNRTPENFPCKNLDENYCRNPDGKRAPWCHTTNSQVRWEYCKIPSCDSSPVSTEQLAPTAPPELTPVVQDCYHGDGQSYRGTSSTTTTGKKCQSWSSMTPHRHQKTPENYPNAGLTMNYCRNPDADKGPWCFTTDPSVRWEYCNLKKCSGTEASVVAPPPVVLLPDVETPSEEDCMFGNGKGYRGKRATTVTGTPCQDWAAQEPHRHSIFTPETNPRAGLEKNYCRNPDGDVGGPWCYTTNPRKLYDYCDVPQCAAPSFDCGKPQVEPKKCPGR
Chain of Plasminogen (Homo sapiens) (P00747 581-810 limits assumed): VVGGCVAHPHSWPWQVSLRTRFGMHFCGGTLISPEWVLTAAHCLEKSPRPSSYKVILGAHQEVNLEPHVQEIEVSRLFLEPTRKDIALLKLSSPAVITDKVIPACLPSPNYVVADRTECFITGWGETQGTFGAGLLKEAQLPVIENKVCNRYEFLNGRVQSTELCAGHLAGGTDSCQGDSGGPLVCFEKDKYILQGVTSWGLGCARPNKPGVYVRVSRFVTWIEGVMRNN

[11] = target: T2, Trypsin (Homo sapiens) (UniProt P07477+P07478+P35030); assay: Inhibition of human trypsin at 1 uM; assay type: protein assay
[12] = target: T2, Trypsin (Homo sapiens); assay: Inhibition of human trypsin at 100 uM; assay type: protein assay
[13] = species: Homo sapiens; assay: Inhibition of human alpha-thrombin at 1 uM
[14] = target: Urokinase-type plasminogen activator (Homo sapiens) (UniProt P00749); assay: Inhibition of human urokinase at 1 uM
[15] = target: Coagulation factor IX (Homo sapiens) (UniProt P00740); assay: Inhibition of human factor 9a at 1 uM
Chain of Coagulation factor IX (Homo sapiens) (P00740 47-191 limits assumed): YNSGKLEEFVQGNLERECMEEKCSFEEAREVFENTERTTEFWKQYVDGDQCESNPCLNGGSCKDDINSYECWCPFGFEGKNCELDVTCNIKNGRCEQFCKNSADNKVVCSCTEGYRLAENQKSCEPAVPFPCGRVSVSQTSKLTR
Chain of Coagulation factor IX (Homo sapiens) (P00740 227-461 limits assumed): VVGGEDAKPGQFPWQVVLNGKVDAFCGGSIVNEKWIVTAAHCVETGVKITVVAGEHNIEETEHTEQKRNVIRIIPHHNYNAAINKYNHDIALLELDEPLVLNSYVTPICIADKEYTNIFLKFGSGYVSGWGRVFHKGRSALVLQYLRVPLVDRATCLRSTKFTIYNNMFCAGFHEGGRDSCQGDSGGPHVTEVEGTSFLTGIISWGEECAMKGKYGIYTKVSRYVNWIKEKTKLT

[16] = target: Plasma kallikrein (Homo sapiens) (UniProt P03952); assay: Inhibition of human kallikrein at 1 uM
Chain of Plasma kallikrein (Homo sapiens) (P03952 20-390 limits assumed): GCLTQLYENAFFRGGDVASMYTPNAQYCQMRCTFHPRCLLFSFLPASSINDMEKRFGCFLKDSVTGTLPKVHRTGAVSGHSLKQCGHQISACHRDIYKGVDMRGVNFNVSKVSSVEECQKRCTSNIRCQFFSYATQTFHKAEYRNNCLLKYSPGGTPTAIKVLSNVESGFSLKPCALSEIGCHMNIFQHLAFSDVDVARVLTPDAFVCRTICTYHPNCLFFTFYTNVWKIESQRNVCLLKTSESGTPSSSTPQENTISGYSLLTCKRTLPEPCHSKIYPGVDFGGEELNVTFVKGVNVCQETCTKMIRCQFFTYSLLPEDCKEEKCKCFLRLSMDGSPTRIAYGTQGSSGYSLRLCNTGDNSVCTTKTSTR
Chain of Plasma kallikrein (Homo sapiens) (P03952 391-638 limits assumed): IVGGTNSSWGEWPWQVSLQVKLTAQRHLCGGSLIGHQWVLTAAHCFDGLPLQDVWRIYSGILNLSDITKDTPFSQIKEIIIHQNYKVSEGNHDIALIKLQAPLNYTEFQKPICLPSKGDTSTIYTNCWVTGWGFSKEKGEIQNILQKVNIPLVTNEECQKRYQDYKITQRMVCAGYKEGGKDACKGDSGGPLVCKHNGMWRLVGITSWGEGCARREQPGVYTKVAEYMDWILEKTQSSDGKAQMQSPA

[17] = target: Coagulation factor XI (Homo sapiens) (UniProt P03951); assay: Inhibition of human factor 11a at 1 uM
[18] = target: Plasminogen (Homo sapiens) (UniProt P00747); assay: Inhibition of human plasmin at 100 uM
[19] = target: T3, Coagulation factor XII (Homo sapiens) (UniProt P00748); assay: Inhibition of human factor 12a at 1 uM
T3 sequence (whole entry): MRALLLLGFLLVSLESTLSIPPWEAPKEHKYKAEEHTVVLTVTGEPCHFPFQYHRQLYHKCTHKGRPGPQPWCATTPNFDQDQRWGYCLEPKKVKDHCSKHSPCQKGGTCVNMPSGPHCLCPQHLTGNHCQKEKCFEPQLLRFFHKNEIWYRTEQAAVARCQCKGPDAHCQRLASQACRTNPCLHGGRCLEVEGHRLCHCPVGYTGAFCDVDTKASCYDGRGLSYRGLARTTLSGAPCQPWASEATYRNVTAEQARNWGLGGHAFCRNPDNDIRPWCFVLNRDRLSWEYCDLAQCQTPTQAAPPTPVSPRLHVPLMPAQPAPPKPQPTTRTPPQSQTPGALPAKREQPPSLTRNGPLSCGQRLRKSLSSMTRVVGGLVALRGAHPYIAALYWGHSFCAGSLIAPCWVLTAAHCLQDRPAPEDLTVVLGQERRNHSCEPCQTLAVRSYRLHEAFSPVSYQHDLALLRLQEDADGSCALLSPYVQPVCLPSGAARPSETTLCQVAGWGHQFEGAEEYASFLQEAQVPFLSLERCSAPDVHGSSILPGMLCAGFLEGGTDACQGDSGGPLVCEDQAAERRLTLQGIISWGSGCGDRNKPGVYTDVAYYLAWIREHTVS

Row | Structure (SMILES) | Activity [1] | Activity [2] | Activity [3] | inhibition [4] | inhibition [5] | inhibition [6] | inhibition [7] | inhibition [8] | inhibition [9] | inhibition [10] | inhibition [11] | inhibition [12] | Activity [13] | inhibition [14] | inhibition [15] | inhibition [16] | inhibition [17] | inhibition [18] | inhibition [19]
1 | CC[C@H](C)[C@H](NC(=O)[C@H](C)NC(=O)[C@H](CCC(=O)O)NC(=O)[C@H](Cc1ccccc1)NC(=O)[C@H](CC(=O)O)NC(=O)[C@H](Cc1ccccc1)NC(=O)[C@@H]1CCCN1C(=O)[C@@H]1CCCN1C(=O)[C@H](C)N)C(=O)N1CCC[C@H]1C(=O)N[C@@H](CCC(=O)O)C(=O)N[C@@H](CCC(=O)O)C(=O)N[C@@H](Cc1ccc(O)cc1)C(=O)N[C@@H](CC(C)C)C(=O)N[C@@H](CC(=O)O)C(=O)N[C@@H](CC(=O)O)C(=O)N[C@@H](CCC(=O)O)C(=O)N[C@@H](CO)C(=O)O (H-APPFDFEAIPEEYLDDES-OH) | Dose-dependent effect | – | – | – | – | – | – | – | – | – | – | – | – | – | – | – | – | – | –
2 | CC[C@H](C)[C@H](NC(=O)[C@H](C)NC(=O)[C@H](CCC(=O)O)NC(=O)[C@H](Cc1ccccc1)NC(=O)[C@H](CC(=O)O)NC(=O)[C@H](Cc1ccccc1)NC(=O)[C@@H]1CCCN1C(=O)[C@@H]1CCCN1C(=O)[C@H](C)NC(=O)[C@@H](NC(=O)[C@H](CCCCN)NC(=O)[C@H](Cc1cnc[nH]1)NC(=O)[C@H](CCSC)NC(=O)[C@H](CCCCN)NC(=O)[C@@H]1CCCN1C(=O)[C@@H](N)CCC(=O)O)[C@@H](C)O)C(=O)N1CCC[C@H]1C(=O)N[C@@H](CCC(=O)O)C(=O)N[C@@H](CCC(=O)O)C(=O)N[C@@H](Cc1ccc(O)cc1)C(=O)N[C@@H](CC(C)C)C(=O)N[C@@H](CC(=O)O)C(=O)N[C@@H](CC(=O)O)C(=O)N[C@@H](CCC(=O)O)C(=O)N[C@@H](CO)C(=O)O | Dose-dependent effect | inactive | Active | – | – | – | – | – | – | – | – | – | – | – | – | – | – | – | –
3 | CC[C@H](C)[C@H](NC(=O)[C@H](C)NC(=O)[C@H](CCC(=O)O)NC(=O)[C@H](Cc1ccccc1)NC(=O)[C@H](CC(=O)O)NC(=O)[C@H](Cc1ccccc1)NC(=O)[C@@H]1CCCN1C(=O)[C@@H]1CCCN1C(=O)[C@H](C)NC(=O)[C@@H](NC(=O)[C@H](CCCCN)NC(=O)[C@H](Cc1cnc[nH]1)NC(=O)[C@H](CCSC)NC(=O)[C@H](CCCCN)NC(=O)[C@@H]1CCCN1C(=O)[C@H](CCC(=O)O)NC(=O)[C@H](C)NC(=O)[C@@H](NC(=O)[C@H](CC(=O)O)NC(=O)CNC(=O)[C@H](CCC(N)=O)NC(=O)[C@H](CC(=O)O)NC(=O)[C@@H](N)CO)C(C)C)[C@@H](C)O)C(=O)N1CCC[C@H]1C(=O)N[C@@H](CCC(=O)O)C(=O)N[C@@H](CCC(=O)O)C(=O)N[C@@H](Cc1ccc(O)cc1)C(=O)N[C@@H](CC(C)C)C(=O)N[C@@H](CC(=O)O)C(=O)N[C@@H](CC(=O)O)C(=O)N[C@@H](CCC(=O)O)C(=O)N[C@@H](CO)C(=O)O | Dose-dependent effect | inactive | Active | < 5% | 20% | < 5% | < 5% | < 5% | < 5% | < 5% | < 5% | 20% | Active | < 5% | < 5% | < 5% | < 5% | 20% | < 5%
